Experimental data taken from patent US11753370B2, “Methods of making deuterium-enriched N-acetylcysteine amide (d-NACA) and (2R, 2R′)-3,3′-disulfanediyl bis(2-acetamidopropanamide) (diNACA) and using d-NACA and diNACA to treat diseases involving oxidative stress” (Nacuity Pharmaceuticals, Inc., priority 2017, dated 2023).

Experiment: Plasma half-life
Format: in vivo
Source text: Metabolism. An advantage of diNACA over N-acetylsysteine amide (NACA) is the reduction in metabolism rate compared to NACA. DiNACA has a longer plasma half-life than NACA. The major metabolites of diNACA are NACA and N-acetylcysteine (NAC) afforded by cleavage of the sulfur bond of diNACA to yield NACA and NAC. Dosing the patient with diNACA affords high greater bioavailability in tissues like the retina and aqueous humore compared to dosing with NACA, presumably due the higher lipophilicity of diNACA compared to NACA and the resulting in vivo cleavage to two NACA-like molecules, thereby effectively increasing the half-life of NACA in the body.
Metabolism. Deuterium-inhibition of NACA metabolism. An advantage of NACA-d3 is the reduction in metabolism rate compared to the non-deuterated NACA. Non-deuterated NACA has a plasma half-life of approximately 2 hours in fasting subjects and approximately 6 hours in fed subjects. The major metabolite of NACA is N-acetylcysteine (NAC) afforded by deamidation of the primary amide functional group of NACA by tissue (e.g., plasma or other tissue) amidase. Another metabolite of NACA is cysteine afforded by (a) deamidation of the primary amide functional group of NACA by tissue (e.g., plasma or other tissue) amidase and (b) de-acetylation of the secondary amide functional group of NACA by tissue (e.g., plasma or other tissue) amidase. Replacement of the acetyl methyl group hydrogen atoms with deuterium atoms slows down the action of tissue amidases on both (primary and secondary) amide functional groups of NACA-d3, thereby prolonging its residence time in the body, i.e., increasing the half-life in the body.

plasma half-life (fasting subjects)	plasma half-life (fed subjects)	plasma half-life compared to NACA (comparison with NACA)	Compound
approximately 2 hours	approximately 6 hours		N-acetylcysteine amide [NACA]
		longer	CC(=O)N[C@@H](CSSC[C@H](NC(C)=O)C(N)=O)C(N)=O [DiNACA, (2R,2R′)-3,3′-disulfanediyl bis(2-acetamidopropanamide)]
